Legend:
[1] = system: haemagglutination between sheep erythrocytes and S. saprophyticus bacteria (Mc 2 and Mc 194); experiment: Inhibition of haemagglutination of sheep erythrocytes with Staphylococcus saprophyticus; assay type: cell-based; settings: for minimal effective concentration: Staphylococcus saprophyticus, Erythrocyte, read-out: Minimum inhibitory con.; for Minimum inhibitory con.: Inhibition of haemagglutination, S. saprophyticus Mc 2 and Mc 194, 2 HU bacteria
Protocol: In the tests the bacteria S. saprophyticus strains, both isolated from urine from patents having urinary tract infection, were used. The bacteria were cultivated in tryptone broth over night, pelletized by means of centrifugation and washed twice with PBS, pH 7.2. Haemagglutination was performed using erythrocytes from sheep obtained from sheep blood and washed twice with 0.85 % saline.
In the haemagglutination-indication experiments microtitre plates (Limbo Sc. Comp. Inc) were used. 25 μl of bacterial suspension were titrated in PBS by two-step titre steps, 25 μl of 1% erythrocyte suspension being then added. The haemagglutination titre was determined after incubation of the plates for 2-4 hours in room temperature.
In the inhibition experiments serial dilutions of the relevant inhibitor (50 μl/well) and 25 μl of bacterial suspension diluted to contain 2 HU haemagglutinating units of bacteria were used. The plates were incubated for 30 minutes at 37° C., 25 μl of the erythrocyte suspension being then added to each well.

[2] = system: NK-cells activity (lymphocytes) against K-562 cells; experiment: Inhibition of NK-cells activity (chromium release cytotoxicity of lymphocytes against K-562); assay type: cell-based, human; settings: for % specific cytotoxicity: ratio 20:1
Protocol: Lymphocytes isolated from peripheral blood drained from normal donors have the ability of exerting a cytotoxic, (i.e. cell killing activity against certain types of cells in culture. In the instant example there is used a human leukemia cell line called K-562 as a target cell for such cytolytic activity.
Method: K-562 cells intracellularly labelled with radioactive chromium are incubated with effector cells (lymphocytes) for 4 hours at 37° C. The cytotoxic effect is measured as the quantity of isotope released in relation to remaining isotope in the target cells. For details see Malmstrom, P., Jonsson, Å, and Sjogren, H.O. "Countercurrent distribution of lymphocytes from human peripheral blood in an aqueous two-phase system. II. Separation into subsets of lymphocytes with distinctive functions". Cell Immunol. 53:51-64, 1980. For studying inhibiting substances effector cells (6×10^6 cells/ml) are preincubated with the respective oligosaccharides diluted in cultivating medium for half an hour at 37° C. After washing with centrifugation the effector cells are transferred directly to the target cells.

[3] = system: adhesion of S. saprophyticus to urinary epithelial cells; experiment: Inhibition of adherence of S. saprophyticus to urinary epithelial cells; assay type: cell-based, Staphylococcus saprophyticus
Protocol: Cells from urinary epithelium were suspended in cell cultivation medium RPMI 1640 (Flow Ltd) to a concentration of 10^5 cells/ml.
Microorganisms of the type S. saprophyticus were suspended in RPMI 1640 to a concentration of 10^9 bacteria/ml. Oligosaccharides which were tested for their ability of preventing adhesion of S. saprophyticus to urinary epithelial cells were dissolved in RPMI 1640 to a concentration of 5 mg/ml. In the experiments 1 ml of the oligosaccharide solution was incubated with 0.1 ml bacterial suspension at 37° C. for 30 minutes. Urinary epithelial cells were incubated with the bacterial suspension incubated in advance as described above with oligosaccharide solution for 45 minutes at 37° C. As a control there was used a bacterial suspension preincubated with 1 ml RPMI 1640.
Incubated samples were filtrated through a 12μ filter and washed 3 times with PBS. The filter was pressed against microscope slides for a few seconds, the slides being then fixed in methanol for 10 minutes. The slides were dried in air and coloured with acridine orange for 2 minutes. The slides were washed, dried in air and studies in fluorescence microscope. The number of bacteria per cell was counted. In each experiment 50 cells were counted.

[4] = 0.3 mg/ml oligosaccharide, experiment 1 (without inhibitor 22.3)
[5] = 0.3 mg/ml oligosaccharide, experiment 2 (without inhibitor 32.0)
[6] = 1 mg/ml oligosaccharide, experiment 1 (without inhibitor 22.3)
[7] = 1 mg/ml oligosaccharide, experiment 2 (without inhibitor 32.0)
[8] = 3 mg/ml oligosaccharide, experiment 1 (without inhibitor 22.3)
[9] = 3 mg/ml oligosaccharide, experiment 2 (without inhibitor 32.0)

With `CC(=O)NC1C(O)CC(OC2C(O)C(CO)OC(OC3C(CO)OC(O)C(O)C3O)C2O)(C(=O)O)OC1C(O)C(O)CO` (stereo not drawn) [3'siallyl-lactose, α-NeuNAcp-(2-3)-β-Galp-(1-4)-Glc, reference compound] the minimal effective concentration [1] was > 2500 µg/mL, the “% specific cytotoxicity” value [2, 4] was 23.9% and the “% specific cytotoxicity” value [2, 5] was 28.7%. The “% specific cytotoxicity” value [2, 6] was 25.2%, the “% specific cytotoxicity” value [2, 7] was 19.7% and the “% specific cytotoxicity” value [2, 8] was 20.0%. For the same molecule, the “% specific cytotoxicity” value [2, 9] was 19.1%.

`CC(=O)NC1C(O)CC(OCC2OC(OC3C(CO)OC(O)C(O)C3O)C(O)C(O)C2O)(C(=O)O)OC1C(O)C(O)CO` (stereo not drawn) [6'siallyl-lactose, α-NeuNAcp-(2-6)-β-Galp-(1-4)-Glc, reference compound] was tested, and the minimal effective concentration [1] was > 2500 µg/mL, the “% specific cytotoxicity” value [2, 4] was 21.3% and the “% specific cytotoxicity” value [2, 5] was 20.2%. For the same molecule, the “% specific cytotoxicity” value [2, 6] was 15.8%, the “% specific cytotoxicity” value [2, 7] was 17.2% and the “% specific cytotoxicity” value [2, 8] was 9.6%. For the same molecule, the “% specific cytotoxicity” value [2, 9] was 15.1%.

`CC(=O)N[C@H]1[C@H](O[C@@H]2[C@@H](OC[C@H]3O[C@@H](O[C@H]4[C@H](O)[C@@H](NC(C)=O)C(O)O[C@@H]4CO)[C@@H](O)[C@@H](O[C@H]4O[C@H](CO)[C@@H](O)[C@H](O)[C@@H]4O[C@@H]4O[C@H](CO)[C@@H](O[C@@H]5O[C@H](CO)[C@H](O)[C@H](O)[C@H]5O)[C@H](O)[C@H]4NC(C)=O)[C@@H]3O)O[C@H](CO)[C@@H](O)[C@@H]2O)O[C@H](CO)[C@@H](O[C@@H]2O[C@H](CO)[C@H](O)[C@H](O)[C@H]2O)[C@@H]1O` (stereo partly drawn) [GM1 -octa] was tested, and the minimal effective concentration [1] was 200 µg/mL, the “% specific cytotoxicity” value [2, 4] was 16.1% and the “% specific cytotoxicity” value [2, 5] was 28.0%. The “% specific cytotoxicity” value [2, 6] was 11.3%, the “% specific cytotoxicity” value [2, 7] was 25.0% and the “% specific cytotoxicity” value [2, 8] was 1.7%. For the same molecule, the “% specific cytotoxicity” value [2, 9] was 12.8% and the “cytolytic effect after preincubation with the oligosaccharides” value ([2]; in concentrations down to 0.3 mg/ml) was “inhibited”.

In the case of `OC[C@H]1O[C@H](O[C@H]2[C@@H](O)[C@@H](CO)OC(O)[C@@H]2O)[C@H](O)[C@@H](O)[C@H]1O` (stereo partly drawn) [α-Galp-(1-3)-Gal], the minimal effective concentration [1] is reported as > 2500 µg/mL.

For `OC[C@H]1O[C@H](O[C@@H]2[C@H](O)[C@@H](O)C(O)O[C@@H]2CO)[C@H](O)[C@@H](O)[C@H]1O` (stereo partly drawn) [α-Galp-(1-4)-Gal], the minimal effective concentration [1] was > 2500 µg/mL.

For `OC[C@H]1O[C@H](O[C@@H]2[C@H](O)[C@@H](O)[C@H](O[C@H]3[C@H](O)[C@@H](O)C(O)O[C@@H]3CO)O[C@@H]2CO)[C@H](O)[C@@H](O)[C@H]1O` (stereo partly drawn) [α-Galp-(1-4)-β-Galp-(1-4)-Glc], the minimal effective concentration [1] was > 2500 µg/mL.

`CC(=O)N[C@H]1[C@H](O[C@@H]2[C@H](O)[C@@H](O)[C@H](O[C@H]3[C@H](O)[C@@H](O)C(O)O[C@@H]3CO)O[C@@H]2CO)O[C@H](CO)[C@@H](O[C@@H]2O[C@H](CO)[C@H](O)[C@H](O)[C@H]2O)[C@@H]1O` (stereo partly drawn) [β-Gal-(1-4)-β--GNAc-(1-4)-β-Gal-(1-4)-Glc] was tested, and the “reduction of the number of adhering bacteria” value ([3]; oligosaccharide 5 mg/ml, preincubated 30 min at 37° C., then 45 min with cells, vs control without oligosaccharides) was ~96%.

For `CC(=O)N[C@H]1[C@H](O[C@H]2[C@@H](O)[C@@H](CO)O[C@H](O[C@@H]3[C@H](O)[C@@H](O)[C@H](O[C@H]4[C@H](O)[C@@H](O)C(O)O[C@@H]4CO)O[C@@H]3CO)[C@@H]2O)O[C@H](CO)[C@H](O)[C@@H]1O` (stereo partly drawn) [β-GalNAcp-(1-3)-α-Galp-(1-4)-β-Galp-(1-4)-Glc], the minimal effective concentration [1] was > 2500 µg/mL.

For `OC[C@H]1O[C@@H](O[C@H]2[C@@H](O)[C@@H](CO)OC(O)[C@@H]2O)[C@H](O)[C@@H](O)[C@H]1O` (stereo partly drawn) [β-Galp-(1-3)-Gal], the minimal effective concentration [1] was > 2500 µg/mL.

`CC(=O)N[C@H]1[C@H](O[C@H]2[C@@H](O)[C@@H](CO)O[C@@H](O[C@H]3[C@H](O)[C@@H](O)C(O)O[C@@H]3CO)[C@@H]2O)O[C@H](CO)[C@@H](O)[C@@H]1O[C@@H]1O[C@H](CO)[C@H](O)[C@H](O)[C@H]1O` (stereo partly drawn) [β-Galp-(1-3)-β-GNAcp-(1-3)-β-Galp-(1-4)-Glc] was tested, and the minimal effective concentration [1] was > 2500 µg/mL.

`OC[C@H]1O[C@@H](O[C@H]2[C@@H](O)[C@@H](CO)O[C@@H](O[C@H]3[C@@H](O)[C@@H](CO)OC(O)[C@@H]3O)[C@@H]2O)[C@H](O)[C@@H](O)[C@H]1O` (stereo partly drawn) [β-Galp-(1-3)-β-Galp-(1-3)-Gal] was tested, and the minimal effective concentration [1] was > 2500 µg/mL.

`OC[C@H]1O[C@@H](O[C@H]2[C@H](O)[C@@H](O)C(O)O[C@@H]2CO)[C@H](O)[C@@H](O)[C@H]1O` (stereo partly drawn) [β-Galp-(1-4)-Glc, reference compound] was tested, and the minimal effective concentration [1] was > 2500 µg/mL and the “reduction of the number of adhering bacteria (in words)” value ([3]; oligosaccharide 5 mg/ml, in comparison with the control test without oligosaccharides) was “did not reduce the number of adhering bacteria”.

`CO[C@@H]1O[C@H](CO)[C@@H](O[C@@H]2O[C@H](CO)[C@H](O)[C@H](O)[C@H]2O)[C@H](O)[C@H]1NC(C)=O` [β-Galp-(1-4)-β-GNAcp-(1-0)-CH3] showed a minimal effective concentration [1] of 250 µg/mL and an inhibition at 5000 µg/mL ([3]; Staphylococcus saprophyticus, Epithelial cell, 0.75 h, read-out: reduction of the number of adhering bacteria) of ~95%.

`CC(=O)N[C@H]1[C@H](O[C@H]2[C@@H](O)[C@@H](CO)O[C@@H](O[C@H]3[C@H](O)[C@@H](O)C(O)O[C@@H]3CO)[C@@H]2O)O[C@H](CO)[C@@H](O[C@@H]2O[C@H](CO)[C@H](O)[C@H](O)[C@H]2O)[C@@H]1O` (stereo partly drawn) [β-Galp-(1-4)-β-GNAcp-(1-3)-β-Galp-(1-4)-Glc] showed a minimal effective concentration [1] of 250 µg/mL.

With `OC[C@H]1O[C@@H](OC[C@H]2OC(O)[C@H](O)[C@@H](O)[C@H]2O)[C@H](O)[C@@H](O)[C@H]1O` (stereo partly drawn) [β-Galp-(1-6)-Gal] the minimal effective concentration [1] was > 2500 µg/mL.

“Asialotransferrin (human): Asialotransferrin (human)” showed a Minimum inhibitory con. [1] of 250 µg/mL.

“Transferrin (human): Transferrin (human)” was tested, and the Minimum inhibitory con. [1] was > 2500 µg/mL.

B1: Fetuin: Fetuin (protein, UniProt P12763 19-359, looked up)
Alpha-2-HS-glycoprotein: IPLDPVAGYKEPACDDPDTEQAALAAVDYINKHLPRGYKHTLNQIDSVKVWPRRPTGEVYDIEIDTLETTCHVLDPTPLANCSVRQQTQHAVEGDCDIHVLKQDGQFSVLFTKCDSSPDSAEDVRKLCPDCPLLAPLNDSRVVHAVEVALATFNAESNGSYLQLVEISRAQFVPLPVSVSVEFAVAATDCIAKEVVDPTKCNLLAEKQYGFCKGSVIQKALGGEDVRVTCTLFQTQPVIPQPQPDGAEAEAPSAVPDAAGPTPSAAGPPVASVVVGPSVVAVPLPLHRAHYDLRHTFSGVASVESSSGEAFHVGKTPIVGQPSIPGGPVRLCPGRIRYFKI
For B1, the Minimum inhibitory con. [1] was > 2500 µg/mL.

Source: patent US4851338A, “Method for diagnosing the presence of bacteria” (Biocarb AB, priority 1982, dated 1989)
